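Compound exposure: 48 hours, 5 concentrations, 96-well plates. Here, GI50 denotes the concentration required for 50% inhibition of growth. TGI marks complete inhibition of growth.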
What was measured:
Test in all cases: NCI tumour cell line growth inhibition, 48 h
[1] = tested on: 786-0 renal
[2] = tested on: A498 renal
[3] = tested on: A549 NSCLC
[4] = tested on: ACHN renal
[5] = tested on: BT-549 breast
[6] = tested on: CAKI-1 renal
[7] = tested on: CCRF-CEM leukemia
[8] = tested on: COLO 205 colon
[9] = tested on: DU-145 prostate
[10] = tested on: EKVX NSCLC
[11] = tested on: HCC-2998 colon
[12] = tested on: HCT-116 colon
[13] = tested on: HCT-15 colon
[14] = tested on: HL-60(TB) leukemia
[15] = tested on: HOP-62 NSCLC
[16] = tested on: HOP-92 NSCLC
[17] = tested on: HT29 colon
[18] = tested on: IGROV1 ovarian
[19] = tested on: K-562 leukemia
[20] = tested on: KM12 colon
[21] = tested on: LOX IMVI melanoma
[22] = tested on: M14 melanoma
[23] = tested on: MALME-3M melanoma
[24] = tested on: MCF7 breast
[25] = tested on: MDA-MB-231 breast
[26] = tested on: MDA-MB-435
[27] = tested on: MDA-MB-468 breast
[28] = tested on: MOLT-4 leukemia
[29] = tested on: NCI-H226 lung
[30] = tested on: NCI-H23 lung
[31] = tested on: NCI-H460 lung
[32] = tested on: NCI-H522 lung
[33] = tested on: NCI/ADR-RES ovarian
[34] = tested on: OVCAR-3 ovarian
[35] = tested on: OVCAR-4 ovarian
[36] = tested on: OVCAR-5 ovarian
[37] = tested on: OVCAR-8 ovarian
[38] = tested on: PC-3 prostate
[39] = tested on: RPMI-8226 leukemia
[40] = tested on: RXF 393 renal
[41] = tested on: SF-268 CNS
[42] = tested on: SF-295 CNS
[43] = tested on: SF-539 CNS
[44] = tested on: SK-MEL-2 melanoma
[45] = tested on: SK-MEL-28 melanoma
[46] = tested on: SK-MEL-5 melanoma
[47] = tested on: SK-OV-3 ovarian
[48] = tested on: SN12C renal
[49] = tested on: SNB-19 CNS
[50] = tested on: SNB-75 CNS
[51] = tested on: SR leukemia
[52] = tested on: SW-620 colon
[53] = tested on: T-47D breast
[54] = tested on: TK-10 renal
[55] = tested on: U251 CNS
[56] = tested on: UACC-257 melanoma
[57] = tested on: UACC-62 melanoma
[58] = tested on: UO-31 renal
[59] = tested on: HS 578T breast

Oc1ccc(Cl)c(Nc2nc(SCCN3CCOCC3)nc3c2cnn3CC(Cl)c2ccc(Br)cc2)c1 (stereo unspecified)
GI50 [1]: 15.4 µM
TGI [1]: 93.3 µM
GI50 [2]: 12.1 µM
TGI [2]: > 100 µM
GI50 [3]: 4.75 µM
TGI [3]: 54.1 µM
GI50 [4]: 3.62 µM
TGI [4]: > 100 µM
GI50 [5]: 26.3 µM
TGI [5]: > 100 µM
GI50 [6]: 6.63 µM
TGI [6]: > 100 µM
GI50 [7]: 3.17 µM
TGI [7]: > 100 µM
GI50 [8]: 18.6 µM
TGI [8]: 42.3 µM
GI50 [9]: 6.33 µM
TGI [9]: > 100 µM
GI50 [10]: 4.64 µM
TGI [10]: > 100 µM
GI50 [11]: 4.1 µM
TGI [11]: 25.4 µM
GI50 [12]: 3.83 µM
TGI [12]: > 100 µM
GI50 [13]: 3.27 µM
TGI [13]: > 100 µM
GI50 [14]: 6.62 µM
TGI [14]: > 100 µM
GI50 [15]: 6.24 µM
TGI [15]: > 100 µM
GI50 [16]: 2.57 µM
TGI [16]: 9.21 µM
GI50 [17]: 6.22 µM
TGI [17]: 24.5 µM
GI50 [18]: 2.82 µM
TGI [18]: 10.3 µM
GI50 [19]: 0.378 µM
TGI [19]: > 100 µM
GI50 [20]: 5.83 µM
TGI [20]: > 100 µM
GI50 [21]: 2.97 µM
TGI [21]: 10.9 µM
GI50 [22]: 4.49 µM
TGI [22]: > 100 µM
GI50 [23]: 3.7 µM
TGI [23]: 19.9 µM
GI50 [24]: 2.93 µM
TGI [24]: > 100 µM
GI50 [25]: 3.77 µM
TGI [25]: 17.3 µM
GI50 [26]: 4.64 µM
TGI [26]: > 100 µM
GI50 [27]: 2.2 µM
TGI [27]: 6.28 µM
GI50 [28]: 3.53 µM
TGI [28]: > 100 µM
GI50 [29]: 5.06 µM
TGI [29]: > 100 µM
GI50 [30]: 8.67 µM
TGI [30]: 47.9 µM
GI50 [31]: 4.12 µM
TGI [31]: > 100 µM
GI50 [32]: 2.92 µM
TGI [32]: > 100 µM
GI50 [33]: 3.37 µM
TGI [33]: > 100 µM
GI50 [34]: 5.5 µM
TGI [34]: > 100 µM
GI50 [35]: 4.91 µM
TGI [35]: > 100 µM
GI50 [36]: 7.08 µM
TGI [36]: 84.6 µM
GI50 [37]: 3.89 µM
TGI [37]: > 100 µM
GI50 [38]: 3.08 µM
TGI [38]: > 100 µM
GI50 [39]: 3.54 µM
TGI [39]: > 100 µM
GI50 [40]: 1.11 µM
TGI [40]: 4.77 µM
GI50 [41]: 4.34 µM
TGI [41]: > 100 µM
GI50 [42]: 3.1 µM
TGI [42]: 19.1 µM
GI50 [43]: 4.43 µM
TGI [43]: > 100 µM
GI50 [44]: 10.1 µM
TGI [44]: 36.9 µM
GI50 [45]: 6.03 µM
TGI [45]: > 100 µM
GI50 [46]: 3.95 µM
TGI [46]: 15.2 µM
GI50 [47]: 17.1 µM
TGI [47]: > 100 µM
GI50 [48]: 3.17 µM
TGI [48]: > 100 µM
GI50 [49]: 8.16 µM
TGI [49]: > 100 µM
GI50 [50]: 1.39 µM
TGI [50]: 6.13 µM
GI50 [51]: 12.8 µM
TGI [51]: > 100 µM
GI50 [52]: 11.3 µM
TGI [52]: > 100 µM
GI50 [53]: 2.88 µM
TGI [53]: > 100 µM
GI50 [54]: 18.2 µM
TGI [54]: 54.7 µM
GI50 [55]: 5.75 µM
TGI [55]: > 100 µM
GI50 [56]: 13.7 µM
TGI [56]: > 100 µM
GI50 [57]: 5.44 µM
TGI [57]: 24 µM
GI50 [58]: 2.04 µM
TGI [58]: > 100 µM

Cn1cc(-c2cc(N)n3nc(-c4c[nH]c5ccccc45)cc3n2)c2cc(Br)ccc21
GI50 [1]: 1.88 µM
TGI [1]: 4.1 µM
GI50 [2]: 2.06 µM
TGI [2]: 7.26 µM
GI50 [3]: 1.91 µM
TGI [3]: 5.18 µM
GI50 [5]: 14.1 µM
TGI [5]: 44.6 µM
GI50 [6]: 1.58 µM
TGI [6]: 3.16 µM
GI50 [7]: 2.24 µM
TGI [7]: 6.75 µM
GI50 [9]: 3.33 µM
TGI [9]: 12.3 µM
GI50 [10]: 1.83 µM
TGI [10]: 4.37 µM
GI50 [11]: 1.78 µM
TGI [11]: 3.39 µM
GI50 [14]: 2.86 µM
TGI [14]: 9.81 µM
GI50 [16]: 2.25 µM
TGI [16]: 5.54 µM
GI50 [59]: 2.56 µM
TGI [59]: 9.25 µM
GI50 [17]: 1.77 µM
TGI [17]: 3.62 µM
GI50 [18]: 1.99 µM
TGI [18]: 4.52 µM
GI50 [19]: 3.44 µM
TGI [19]: > 100 µM
GI50 [20]: 1.94 µM
TGI [20]: 4.09 µM
GI50 [22]: 1.79 µM
TGI [22]: 4.09 µM
GI50 [23]: 1.87 µM
TGI [23]: 3.31 µM
GI50 [25]: 1.91 µM
TGI [25]: 3.5 µM
GI50 [26]: 2.07 µM
TGI [26]: 4.65 µM
GI50 [27]: 1.56 µM
TGI [27]: 3.04 µM
GI50 [29]: 4.76 µM
TGI [29]: 42.9 µM
GI50 [32]: 1.65 µM
TGI [32]: 3.34 µM
GI50 [33]: 2.22 µM
TGI [33]: 5.09 µM
GI50 [35]: 3.06 µM
TGI [35]: 11.2 µM
GI50 [36]: 1.91 µM
TGI [36]: 3.93 µM
GI50 [37]: 2.84 µM
TGI [37]: 8.51 µM
GI50 [38]: 2.09 µM
TGI [38]: 5.36 µM
GI50 [39]: 2.98 µM
TGI [39]: 9.57 µM
GI50 [40]: 1.85 µM
TGI [40]: 4.65 µM
GI50 [41]: 2.13 µM
TGI [41]: 5.87 µM
GI50 [43]: 1.75 µM
TGI [43]: 3.22 µM
GI50 [44]: 1.88 µM
TGI [44]: 4.27 µM
GI50 [45]: 1.85 µM
TGI [45]: 3.52 µM
GI50 [46]: 1.92 µM
TGI [46]: 3.82 µM
GI50 [47]: 6.31 µM
TGI [47]: > 100 µM
GI50 [48]: 1.91 µM
TGI [48]: 3.87 µM
GI50 [49]: 2.02 µM
TGI [49]: 4.39 µM
GI50 [50]: 2.05 µM
TGI [50]: 9.74 µM
GI50 [51]: 5.95 µM
TGI [51]: > 100 µM
GI50 [53]: 1.97 µM
TGI [53]: 4.72 µM
GI50 [54]: 2.08 µM
TGI [54]: 5.53 µM
GI50 [56]: 1.95 µM
TGI [56]: 4.31 µM
GI50 [57]: 1.65 µM
TGI [57]: 3.28 µM
GI50 [58]: 1.71 µM
TGI [58]: 3.53 µM

From PubChem BioAssay (NCI)
